Results from patent publication US10745384B2, “Indazole derivatives as αv integrin antagonists” (BRISTOL-MYERS SQUIBB COMPANY, priority 2016, dated 2020).
Counter-ions that a name gives are not always drawn.

Biological target: T1, human αVβ6 (Homo sapiens, UniProt P06756+P18564)
T1 construct: purchased R & D systems 3817-AV
Assay: human αVβ6 HTRF binding assay
Details: recombinant human αVβ6 integrin, FITC-conjugated fibronectin
Experimental: All binding assays used the HTRF (homogeneous time resolved fluorescence) technology from Cisbio International, therefore all assays are described as HTRF binding assays. The assay results for the Examples are listed above together with the characterization data. The HTRF binding assays are established for the following integrins: human αVβ6, human αVβ1, human αVβ3, human αVβ5, and human αVβ8. All assays used the following assay buffer: 20 mM Tris, pH 7.4, 1 mM MgCl2, 1 mM MnCl2, 0.01% Tween 20, and 0.01% BSA. Alternatively, a SPA-based assay was used for evaluation of receptor binding.
The following describes the components and a representative procedure for the human αVβ6 HTRF binding assay: Recombinant human αVβ6 Integrin (R & D systems, 3817-AV) was biotinylated. Biotinylated human αVβ6 Integrin was added to assay vessel at a final concentration of 1.25 nM. FITC-conjugated fibronectin (Cytoskeleton, FNR02) was then added at the final concentration of 5 nM. The mixture was centrifuged at 600 rpm for three minutes using Thermo Fisher Heraeus Multifuge X3 centrifuge and then incubated at room temperature for an hour. Streptavidin Terbium (Cisbio international 610STLB) was then added at the final concentration of 0.625 nM. The resulting mixture was centrifuged at 600 rpm for three minutes using Thermo Fisher Heraeus Multifuge X3 centrifuge and then incubated at room temperature overnight in dark before reading HTRF signals. […]

T1 sequence (P06756 31-992 limits assumed): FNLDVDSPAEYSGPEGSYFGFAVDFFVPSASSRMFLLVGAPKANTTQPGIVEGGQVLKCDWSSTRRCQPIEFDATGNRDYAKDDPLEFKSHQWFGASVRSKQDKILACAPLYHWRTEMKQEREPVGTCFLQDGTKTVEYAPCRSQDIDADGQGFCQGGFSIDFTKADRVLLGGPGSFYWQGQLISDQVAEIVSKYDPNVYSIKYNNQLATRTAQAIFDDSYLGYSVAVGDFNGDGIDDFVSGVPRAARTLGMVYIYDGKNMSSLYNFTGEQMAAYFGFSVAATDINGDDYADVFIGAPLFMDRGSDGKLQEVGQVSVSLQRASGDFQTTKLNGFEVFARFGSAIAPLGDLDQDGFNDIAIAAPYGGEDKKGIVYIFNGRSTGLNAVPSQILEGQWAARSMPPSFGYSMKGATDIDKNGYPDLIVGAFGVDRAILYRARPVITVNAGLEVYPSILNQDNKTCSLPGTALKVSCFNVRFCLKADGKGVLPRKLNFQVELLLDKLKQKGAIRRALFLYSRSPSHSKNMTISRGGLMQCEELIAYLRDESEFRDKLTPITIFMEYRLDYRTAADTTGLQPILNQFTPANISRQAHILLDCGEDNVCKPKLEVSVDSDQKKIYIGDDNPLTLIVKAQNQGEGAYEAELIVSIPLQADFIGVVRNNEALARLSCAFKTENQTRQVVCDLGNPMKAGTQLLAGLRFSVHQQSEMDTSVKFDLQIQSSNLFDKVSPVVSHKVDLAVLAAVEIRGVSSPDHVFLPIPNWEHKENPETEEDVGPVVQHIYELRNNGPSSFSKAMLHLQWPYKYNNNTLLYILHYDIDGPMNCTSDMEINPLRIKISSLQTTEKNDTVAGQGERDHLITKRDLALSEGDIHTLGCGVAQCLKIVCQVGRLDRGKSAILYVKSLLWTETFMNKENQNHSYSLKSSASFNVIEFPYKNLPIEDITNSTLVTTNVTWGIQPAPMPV
T1 sequence (P18564 22-707 limits assumed): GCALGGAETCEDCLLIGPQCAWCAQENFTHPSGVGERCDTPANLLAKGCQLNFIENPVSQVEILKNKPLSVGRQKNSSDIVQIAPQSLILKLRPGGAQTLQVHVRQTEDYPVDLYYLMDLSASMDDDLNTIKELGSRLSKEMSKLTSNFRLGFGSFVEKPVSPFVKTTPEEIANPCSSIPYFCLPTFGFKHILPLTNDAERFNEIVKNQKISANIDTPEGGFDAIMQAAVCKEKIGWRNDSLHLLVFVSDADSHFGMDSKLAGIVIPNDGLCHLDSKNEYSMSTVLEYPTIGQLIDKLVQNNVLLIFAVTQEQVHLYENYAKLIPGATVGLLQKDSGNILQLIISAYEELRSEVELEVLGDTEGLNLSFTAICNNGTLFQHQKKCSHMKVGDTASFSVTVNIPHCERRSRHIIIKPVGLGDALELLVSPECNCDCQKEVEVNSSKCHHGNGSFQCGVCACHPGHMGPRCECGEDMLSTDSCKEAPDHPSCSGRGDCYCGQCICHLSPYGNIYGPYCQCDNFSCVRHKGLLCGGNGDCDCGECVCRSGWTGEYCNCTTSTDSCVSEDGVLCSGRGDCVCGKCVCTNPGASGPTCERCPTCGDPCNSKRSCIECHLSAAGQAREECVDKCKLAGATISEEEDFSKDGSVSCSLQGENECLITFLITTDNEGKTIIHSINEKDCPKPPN

| Structure (SMILES) | IC50 |
| --- | --- |
| O=C(O)CC(c1ccc2c(c1)oc1ccccc12)n1ncc2c(OCCc3ccc4c(n3)NCCC4)cccc21 (stereo not drawn) [Example 30, 3-(Dibenzo[b,d]furan-3-yl)-3-(4-(2-(5,6,7,8-tetrahydro-1,8-naphthyridin-2-yl)ethoxy)-1H-indazol-1-yl)propanoic acid] | 1200 nM |
| O=C(O)CC(CCC(F)(F)F)n1ncc2c(CCCc3ccc4c(n3)NCCC4)cccc21 (stereo not drawn) [Example 31, 6,6,6-Trifluoro-3-(4-(3-(5,6,7,8-tetrahydro-1,8-naphthyridin-2-yl)propyl)-1H-indazol-1-yl)hexanoic acid] | 3300 nM |
| O=C(O)CC(c1cc(Cl)cc(Cl)c1)n1ncc2c(OCCc3ccc4c(n3)NCCC4)cccc21 (stereo not drawn) [Example 32, 3-(3,5-Dichlorophenyl)-3-(4-(2-(5,6,7,8-tetrahydro-1,8-naphthyridin-2-yl)ethoxy)-1H-indazol-1-yl)propanoic acid] | 1300 nM |
| O=C(O)CC(c1cnc2ccccc2n1)n1ncc2c(OCCc3ccc4c(n3)NCCC4)cccc21 (stereo not drawn) [Example 33, 3-(Quinoxalin-2-yl)-3-(4-(2-(5,6,7,8-tetrahydro-1,8-naphthyridin-2-yl)ethoxy)-1H-indazol-1-yl)propanoic acid] | 1600 nM |
| CN(C)C(=O)c1cccc([C@@H](CC(=O)O)n2ncc3cc(OCCc4ccc5c(n4)NCCC5)ccc32)c1 [Example 37, (R)-3-(3-(Dimethylcarbamoyl)phenyl)-3-(5-(2-(5,6,7,8-tetrahydro-1,8-naphthyridin-2-yl)ethoxy)-1H-indazol-1-yl)propanoic acid] | 1100 nM |
| O=C(NC(Cn1ncc2c(OCCc3ccc4c(n3)NCCC4)cccc21)C(=O)O)OCc1ccccc1 (stereo not drawn) [Example 39, 2-(((Benzyloxy)carbonyl)amino)-3-(4-(2-(5,6,7,8-tetrahydro-1,8-naphthyridin-2-yl)ethoxy)-1H-indazol-1-yl)propanoic acid] | 340 nM |
| COc1ccc([C@@H](CC(=O)O)n2ncc3cc(OCCc4ccc5c(n4)NCCC5)ccc32)cn1 [Example 40, (R)-3-(6-Methoxypyridin-3-yl)-3-(5-(2-(5,6,7,8-tetrahydro-1,8-naphthyridin-2-yl)ethoxy)-1H-indazol-1-yl)propanoic acid] | 210 nM |
| O=C(O)CC(C1CC1)n1ncc2cc(OCCc3ccc4c(n3)NCCC4)ccc21 (stereo not drawn) [Example 45, 3-Cyclopropyl-3-(5-(2-(5,6,7,8-tetrahydro-1,8-naphthyridin-2-yl)ethoxy)-1H-indazol-1-yl)propanoic acid, TFA] | 2300 nM |
| CCCCCC(CC(=O)O)n1ncc2cc(OCCc3ccc4c(n3)NCCC4)ccc21 (stereo not drawn) [Example 46, 3-(5-(2-(5,6,7,8-Tetrahydro-1,8-naphthyridin-2-yl)ethoxy)-1H-indazol-1-yl)octanoic acid, TFA] | 330 nM |
| O=C(O)CCn1ncc2cc(OCCc3ccc4c(n3)NCCC4)ccc21 [Example 51, 3-(5-(2-(5,6,7,8-Tetrahydro-1,8-naphthyridin-2-yl)ethoxy)-1H-indazol-1-yl)propanoic acid] | 2500 nM |
| O=C(O)CC(c1ccc(F)cn1)n1ncc2cc(OCCc3ccc4c(n3)NCCC4)ccc21 (stereo not drawn) [Example 53, 3-(5-Fluoropyridin-2-yl)-3-(5-(2-(5,6,7,8-tetrahydro-1,8-naphthyridin-2-yl)ethoxy)-1H-indazol-1-yl)propanoic acid, TFA] | 150 nM |
| Cc1cc(C)nc(C(CC(=O)O)n2ncc3cc(OCCc4ccc5c(n4)NCCC5)ccc32)n1 (stereo not drawn) [Example 55, 3-(4,6-Dimethylpyrimidin-2-yl)-3-(5-(2-(5,6,7,8-tetrahydro-1,8-naphthyridin-2-yl)ethoxy)-1H-indazol-1-yl)propanoic acid, TFA] | 920 nM |
| O=C(O)CC(c1ccccn1)n1ncc2cc(OCCc3ccc4c(n3)NCCC4)ccc21 (stereo not drawn) [Example 61, 3-(Pyridin-2-yl)-3-(5-(2-(5,6,7,8-tetrahydro-1,8-naphthyridin-2-yl)ethoxy)-1H-indazol-1-yl)propanoic acid, TFA] | 80 nM |

Continued, values first:

| IC50 | Structure (SMILES) |
| --- | --- |
| 17 nM | CN(C)C(=O)c1cccc(C(CC(=O)O)n2ncc3cc(OCCc4ccc5c(n4)NCCC5)ccc32)c1 (stereo not drawn) [Example 35, 3-(3-(Dimethylcarbamoyl)phenyl)-3-(5-(2-(5,6,7,8-tetrahydro-1,8-naphthyridin-2-yl)ethoxy)-1H-indazol-1-yl)propanoic acid] |
| 77 nM | O=C(N[C@@H](Cn1ncc2cc(CCCc3ccc4c(n3)NCCC4)ccc21)C(=O)O)OCc1ccccc1 [Example 36, (S)-2-(((Benzyloxy)carbonyl)amino)-3-(5-(3-(5,6,7,8-tetrahydro-1,8-naphthyridin-2-yl)propyl)-1H-indazol-1-yl)propanoic acid] |
| 4.2 nM | CN(C)C(=O)c1cccc([C@H](CC(=O)O)n2ncc3cc(OCCc4ccc5c(n4)NCCC5)ccc32)c1 [Example 38, (S)-3-(3-(Dimethylcarbamoyl)phenyl)-3-(5-(2-(5,6,7,8-tetrahydro-1,8-naphthyridin-2-yl)ethoxy)-1H-indazol-1-yl)propanoic acid] |
| 4.4 nM | O=C(O)CC(c1cncc(Cl)c1)n1ncc2cc(OCCc3ccc4c(n3)NCCC4)ccc21 (stereo not drawn) [Example 42, 3-(5-Chloropyridin-3-yl)-3-(5-(2-(5,6,7,8-tetrahydro-1,8-naphthyridin-2-yl)ethoxy)-1H-indazol-1-yl)propanoic acid, TFA] |
| 3.2 nM | O=C(O)CC(c1cc(Cl)cc(Cl)c1)n1ncc2cc(OCCc3ccc4c(n3)NCCC4)ccc21 (stereo not drawn) [Example 43, 3-(3,5-Dichlorophenyl)-3-(5-(2-(5,6,7,8-tetrahydro-1,8-naphthyridin-2-yl)ethoxy)-1H-indazol-1-yl)propanoic acid, TFA] |
| 8.71 nM | COc1ccc(C(CC(=O)O)n2ncc3cc(OCCc4ccc5c(n4)NCCC5)ccc32)cc1F (stereo not drawn) [Example 44, 3-(3-Fluoro-4-methoxyphenyl)-3-(5-(2-(5,6,7,8-tetrahydro-1,8-naphthyridin-2-yl)ethoxy)-1H-indazol-1-yl)propanoic acid, TFA] |
| 7 nM | O=C(O)CC(c1ccc2c(c1)CCO2)n1ncc2cc(OCCc3ccc4c(n3)NCCC4)ccc21 (stereo not drawn) [Example 47, 3-(2,3-Dihydrobenzofuran-5-yl)-3-(5-(2-(5,6,7,8-tetrahydro-1,8-naphthyridin-2-yl)ethoxy)-1H-indazol-1-yl)propanoic acid, TFA] |
| 33 nM | O=C(O)CC(c1cccs1)n1ncc2cc(OCCc3ccc4c(n3)NCCC4)ccc21 (stereo not drawn) [Example 49, 3-(5-(2-(5,6,7,8-Tetrahydro-1,8-naphthyridin-2-yl)ethoxy)-1H-indazol-1-yl)-3-(thiophen-2-yl)propanoic acid, TFA] |
| 80 nM | O=C(O)CC(c1cccnc1)n1ncc2cc(OCCc3ccc4c(n3)NCCC4)ccc21 (stereo not drawn) [Example 50, 3-(Pyridin-3-yl)-3-(5-(2-(5,6,7,8-tetrahydro-1,8-naphthyridin-2-yl)ethoxy)-1H-indazol-1-yl)propanoic acid, TFA] |
| 30 nM | O=C(O)CC(c1ccc2oc3ccccc3c2c1)n1ncc2cc(OCCc3ccc4c(n3)NCCC4)ccc21 (stereo not drawn) [Example 54, 3-(Dibenzo[b,d]furan-2-yl)-3-(5-(2-(5,6,7,8-tetrahydro-1,8-naphthyridin-2-yl)ethoxy)-1H-indazol-1-yl)propanoic acid, TFA] |
| 4.1 nM | Cc1nc2cc(C(CC(=O)O)n3ncc4cc(OCCc5ccc6c(n5)NCCC6)ccc43)ccc2s1 (stereo not drawn) [Example 56, 3-(2-Methylbenzo[d]thiazol-5-yl)-3-(5-(2-(5,6,7,8-tetrahydro-1,8-naphthyridin-2-yl)ethoxy)-1H-indazol-1-yl)propanoic acid, TFA] |
| 11 nM | O=C(O)CC(c1ccc(Oc2ccccc2)cc1)n1ncc2cc(OCCc3ccc4c(n3)NCCC4)ccc21 (stereo not drawn) [Example 57, 3-(4-Phenoxyphenyl)-3-(5-(2-(5,6,7,8-tetrahydro-1,8-naphthyridin-2-yl)ethoxy)-1H-indazol-1-yl)propanoic acid, TFA] |
| 1.7 nM | O=C(O)CC(c1cccc(N2CCOCC2)c1)n1ncc2cc(OCCc3ccc4c(n3)NCCC4)ccc21 (stereo not drawn) [Example 58, 3-(3-Morpholinophenyl)-3-(5-(2-(5,6,7,8-tetrahydro-1,8-naphthyridin-2-yl)ethoxy)-1H-indazol-1-yl)propanoic acid, TFA] |
| 1.2 nM | O=C(O)CC(c1cccc(-n2cccc2)c1)n1ncc2cc(OCCc3ccc4c(n3)NCCC4)ccc21 (stereo not drawn) [Example 59, 3-(3-(1H-Pyrrol-1-yl)phenyl)-3-(5-(2-(5,6,7,8-tetrahydro-1,8-naphthyridin-2-yl)ethoxy)-1H-indazol-1-yl)propanoic acid, TFA] |
| 5.1 nM | CN(C)Cc1cccc(C(CC(=O)O)n2ncc3cc(OCCc4ccc5c(n4)NCCC5)ccc32)c1 (stereo not drawn) [Example 60, 3-(3-((Dimethylamino)methyl)phenyl)-3-(5-(2-(5,6,7,8-tetrahydro-1,8-naphthyridin-2-yl)ethoxy)-1H-indazol-1-yl)propanoic acid, TFA] |
| 37 nM | O=C(O)CC(c1cccc(N2CCCC2=O)c1)n1ncc2cc(OCCc3ccc4c(n3)NCCC4)ccc21 (stereo not drawn) [Example 62, 3-(3-(2-Oxopyrrolidin-1-yl)phenyl)-3-(5-(2-(5,6,7,8-tetrahydro-1,8-naphthyridin-2-yl)ethoxy)-1H-indazol-1-yl)propanoic acid, TFA] |
| 55 nM | CCCn1cc(C(CC(=O)O)n2ncc3cc(OCCc4ccc5c(n4)NCCC5)ccc32)cn1 (stereo not drawn) [Example 63, 3-(1-Propylpyrazol-4-yl)-3-(5-(2-(5,6,7,8-tetrahydro-1,8-naphthyridin-2-yl)ethoxy)-1H-indazol-1-yl)propanoic acid, TFA] |
